Test results: ChEMBL document CHEMBL3526000 (Drug Metab Dispos, 2012)

Molecular target: T1, UDP-glucuronosyltransferase 2B7 (Homo sapiens, UniProt P16662)
T1 sequence (P16662 whole entry): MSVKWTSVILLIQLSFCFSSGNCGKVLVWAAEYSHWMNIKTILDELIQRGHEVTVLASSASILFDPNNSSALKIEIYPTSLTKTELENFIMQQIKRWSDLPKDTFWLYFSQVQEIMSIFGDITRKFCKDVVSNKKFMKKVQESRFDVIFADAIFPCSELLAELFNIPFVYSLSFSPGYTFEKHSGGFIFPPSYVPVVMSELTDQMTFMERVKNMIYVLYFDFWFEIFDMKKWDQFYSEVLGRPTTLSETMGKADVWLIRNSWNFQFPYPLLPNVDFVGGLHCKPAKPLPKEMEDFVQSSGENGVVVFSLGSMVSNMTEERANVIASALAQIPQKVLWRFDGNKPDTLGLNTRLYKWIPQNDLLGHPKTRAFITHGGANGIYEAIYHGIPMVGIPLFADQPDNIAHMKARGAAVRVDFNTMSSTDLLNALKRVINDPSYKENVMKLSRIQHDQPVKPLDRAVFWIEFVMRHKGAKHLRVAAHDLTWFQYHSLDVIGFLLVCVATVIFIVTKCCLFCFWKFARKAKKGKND
Test: Drug metabolism assessed as recombinant human UGT2B7 assessed as O-glucuronidation measured as inhibition constant at 10 to 400 uM incubated for 60 mins by LC-MS/MS analysis

In the case of `O=C(CCCN1CCC(O)(c2ccc(Cl)cc2)CC1)c1ccc(F)cc1` [HALOPERIDOL], the Ki is reported as 590 µM.
